Experimental data published in patent publication US7906308B2, “Phosphorylation and regulation of Akt/PKB by the rictor-mTOR complex” (Whitehead Institute for Biomedical Research, priority 2005, dated 2011).
Values belong to the compound of their own block, whether it stands above or below them.

Key:
[1] = system: PC3 cells; assay: apoptosis by DNA fragmentation (Cell Death Detection Elisa); conditions: PC3 cells expressing wild-type or S473D Akt1/PKB1, 100 μM
Method: Cells were selected for one week in 200 μg/ml hygromycin before use. 15,000 PC3 (MSCV controls, WT Akt1/PKB1, or 473D Akt1/PKB1) cells were seeded in the wells of a 96 well-plate and cultured overnight. The next day the cells were rinsed once in serum-free medium and then cultured for 48 hrs in serum-free medium containing either DMSO (the small molecule vehicle), 100 nM rapamycin, 100 μM indole-3-carbinol, or both rapamycin and indole-3-carbinol. When indole-3-carbinol was used, 0.002% BSA was added to the medium. After 48 hours in culture all cells (adherent and floating) were processed with the Cell Death Detection Elisa plus (Roche, cat# 1774425) as described by the manufacturer.

[2] = system: PC3 cells; conditions: literature (Chinni & Sarkar); cited from earlier work
[3] = food intake during 7-day treatment; type: in vivo, mice; conditions: 10 mg/kg daily
Method: (§1) 1 mg of rapamycin was dissolved in 20 μl of ethanol, which was then diluted with Ringer's saline solution to a final concentration of 1 mg/ml directly before use. Three-month old male C57BL/6NTac (Taconic) mice were administered daily intraperitioneal injections of 10 mg/kg rapamycin or the drug vehicle for 7 days. Mice were then euthanized with CO2, organs were harvested into RIPA buffer, and homogenized with mechanical disruption followed by sonication. […] The experiment was repeated twice with similar results.

[4] = Morrisett et al. 2003; cited from earlier work
[5] = target: mTORC2 assembly (Homo sapiens, UniProt P42345+P62942); assay: 35S pulse-chase of newly synthesized mTOR bound to rictor; type: cell-based; conditions: 100 nM
Sequence of mTORC2 assembly (P62942 2-108 limits assumed, other chains not shown): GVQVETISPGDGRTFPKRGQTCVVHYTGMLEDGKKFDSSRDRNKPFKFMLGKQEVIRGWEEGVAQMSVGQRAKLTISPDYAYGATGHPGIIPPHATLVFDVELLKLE
Method: 4×10^6 Hela or PC3 cells growing in 100 mm dishes were treated with 100 nM rapamycin or vehicle control for 20 minutes, rinsed once in methionine- and cysteine-free DMEM, and then incubated in 3.5 ml of the same medium containing 10% dialyzed serum and 0.1 mCi/ml of ^35S-methionine/^35S-cysteine (Express Protein Labeling Mix, Perkin Elmer). After allowing the cells to label for 30 minutes, the cells were washed once in the normal culture medium and incubated in fresh medium for the periods of time indicated in the figures. […] Quantification was performed using images acquired with a phosphoimager.

[6] = tissue penetration with phospho-S6 as marker; type: in vivo, mice; conditions: 10 mg/kg intraperitoneal daily
Method: as §1

[7] = target: rictor (UniProt Q6R327)
[8] = target: full length, wild-type Akt1/PKB1 (inactive, Upstate Biotechnology #14-279) (UniProt P31749)
Sequence of full length, wild-type Akt1/PKB1 (inactive, Upstate Biotechnology #14-279) (P31749 whole entry, looked up, tested part not stated): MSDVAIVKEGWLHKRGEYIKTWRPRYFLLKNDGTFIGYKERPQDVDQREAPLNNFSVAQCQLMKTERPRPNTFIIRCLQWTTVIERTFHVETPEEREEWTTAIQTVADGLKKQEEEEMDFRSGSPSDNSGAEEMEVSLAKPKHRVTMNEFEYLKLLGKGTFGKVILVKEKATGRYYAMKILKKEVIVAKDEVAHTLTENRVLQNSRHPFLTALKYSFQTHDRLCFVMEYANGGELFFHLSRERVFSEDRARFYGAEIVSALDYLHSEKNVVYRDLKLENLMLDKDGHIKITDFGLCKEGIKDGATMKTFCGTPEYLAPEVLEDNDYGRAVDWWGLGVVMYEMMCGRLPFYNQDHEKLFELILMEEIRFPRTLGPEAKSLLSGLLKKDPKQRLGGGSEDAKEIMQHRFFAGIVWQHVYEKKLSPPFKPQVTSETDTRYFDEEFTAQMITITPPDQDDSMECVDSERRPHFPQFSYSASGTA

[9] = target: T1, rictor-mTOR complex (Homo sapiens, UniProt P42345); assay: rictor-mTOR immunoprecipitate kinase assay with Akt1/PKB1 as substrate; type: biochemical; conditions: immunoprecipitates from HEK-293T or HeLa cells; FIG. 3C
T1 construct: Immunoprecipitates prepared from lysates of HEK-293T or HeLa cells with the indicated antibodies; endogenous in cells; host or cells: A1: HEK-293T or HeLa; A11: PC3, BJAB, Jurkat, HeLa, H460 (treated with rapamycin before lysis)
Method: For all immunoprecipitation experiments the lysis buffer contained 0.3% CHAPS instead of 1% Triton in order to preserve the integrity of the mTOR complexes (D. D. Sarbassov et al., Curr Biol 14, 1296 (2004); D.-H. Kim et al., Cell 110, 163 (2002)). 4 μg of the indicated antibodies were added to the cleared cellular lysates and incubated with rotation for 90-min. 25 μl of a 50% slurry of protein G-sepharose was then added and the incubation continued for 1 h. Immunoprecipitates captured with protein G-sepharose were washed four times with the CHAPS Lysis Buffer and once with the rictor-mTOR kinase buffer (25 mM Hepes pH 7.5, 100 mM potassium acetate, 1 mM MgCl2). […] After a quick spin, the supernatant was removed from the protein G-sepharose and analyzed by immunoblotting (D.-H. Kim et al., Cell 110, 163 (2002)). […] Supernatants were used in the Akt1/PKB1 kinase assay as described below and were also analyzed by immunoblotting. The pelleted G-sepharose beads were also analyzed by immunoblotting to determine the levels of rictor, mTOR, and raptor in the immunoprecipitates. Akt1/PKB1 kinase activity was determined using Crosstide (Upstate Biotechnology, #12-331) as substrate as recommended by the manufacturers protocol. […] After the washing, the P81 squares were dried and radioactivity read in a scintillation counter.

Compound: OCc1c[nH]c2ccccc12 [indole-3-carbinol]
- induction of apoptosis [1]: decreased the capacity of indole-3-carbinol to induce apoptosis
- apoptosis in PC3 cells [2]: known to induce apoptosis

- food intake versus vehicle [3]: ate similar amounts
- interaction between newly-synthesized mTOR and rictor prevented ([5]; HeLa cells): 80%
- interaction between newly-synthesized mTOR and rictor prevented ([5]; PC3 cells): 100%
Compound: CO[C@H]1C[C@@H]2CC[C@@H](C)[C@@](O)(O2)C(=O)C(=O)N2CCCC[C@H]2C(=O)O[C@H]([C@H](C)C[C@@H]2CC[C@@H](O)[C@H](OC)C2)CC(=O)[C@H](C)/C=C(\C)[C@@H](O)[C@@H](OC)C(=O)[C@H](C)C[C@H](C)/C=C/C=C/C=C/1C [rapamycin]
- side effect in patients [4]: hyperlipidemia commonly seen
- tissue penetration [6]: penetrates all major tissues except the brain

Compound: mTOR (mammalian Target of Rapamycin kinase)
- in vitro kinase activity of rictor immunoprecipitates towards Akt/PKB [7]: in HeLa and H460 cells treated with rapamycin for 24 hours, a greater amount of mTOR remained bound to rictor and this correlated with a higher level of kinase activity towards Akt/PKB
- in vitro phosphorylation of Akt/PKB by immunoprecipitates [7]: the raptor immunoprecipitates also contain mTOR but did not phosphorylate Akt/PKB

Compound: rictor-mTOR complex
- phosphorylation of S473 of Akt/PKB in vitro (immunoblot) [8]: Rictor-mTOR complexes isolated from HEK-293T or HeLa phosphorylated S473 but not T308 of full length, wild-type Akt/PKB in vitro

Compound: CN[C@@H]1C[C@H]2O[C@@](C)([C@@H]1OC)n1c3ccccc3c3c4c(c5c6ccccc6n2c5c31)C(=O)NC4 [Staurosporine, staurosporine]
- in vitro phosphorylation of Akt/PKB by rictor-mTOR [9]: did not decrease
